Results on 16 compounds are retold here after patent US20250179066A1, “ZWITTERIONIC ANTIBACTERIAL COMPOUNDS” (Hoffmann-La Roche Inc., priority 2022, published 2025).

The structures appear in SMILES notation. Counter-ions that a name gives are not always drawn.

For one test, the system named is Acinetobacter baumannii ATCC17961. Nature of the test: Antimicrobial susceptibility testing: 90% growth inhibitory concentration (IC90) determination. To be noted: 90% growth inhibitory concentration against Acinetobacter baumannii ATCC17961, Iso-Sensitest broth, OD 600 nm over 16 h; read-out: ATCC 17961 IC90. The class given is cell-based. The procedure, abridged:
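Twofold serial dilutions (e.g. 10 to 0.0195 μM final) in Iso-Sensitest broth inoculated at ~5×10^5 CFU/mL, incubated at 35±2° C. OD600 read every minute for 16 h; IC90 is the concentration inhibiting 90% of growth during logarithmic phase.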
One may read the IC90 as the concentration needed for an effect of 90%. On to `Cn1c(-c2cn(-c3ccc(N)cn3)nc2C(F)(F)F)cnc1C(=O)Nc1ccc(C(=O)N2CCN(C(=O)CCC[N+](CCCN)(CCCN)CC(=O)O)CC2)c(Cl)c1` [Example 66, bis(3-aminopropyl)-[4-[4-[4-[[5-[1-(5-amino-2-pyridyl)-3-(trifluoromethyl)pyrazol-4-yl]-1-methyl-imidazole-2-carbonyl]amino]-2-chloro-benzoyl]piperazino]-4-keto-butyl]-(carboxymethyl)ammonium. 1:1 2,2,2-trifluoroacetate], for which the IC90 turned out to be 720 nM.

The same test, now with this note: Acinetobacter baumannii, ATCC17961, 16 h, 90% growth inhibitory concentration against Acinetobacter baumannii ATCC17961, Iso-Sensitest broth, OD 600 nm over 16 h; read-out: ATCC 17961 IC90.
As for `Cn1c(-c2cn(-c3ccc(N)cn3)nc2C(F)(F)F)cnc1C(=O)Nc1ccc(C(=O)N2CCN(C(=O)CCCN(CCCN)CC(=O)O)CC2)c(Cl)c1` [Example 72, 2-[3-aminopropyl-[4-[4-[4-[[5-[1-(5-amino-2-pyridyl)-3-(trifluoromethyl)pyrazol-4-yl]-1-methyl-imidazole-2-carbonyl]amino]-2-chloro-benzoyl]piperazino]-4-keto-butyl]amino]acetic acid. 1:1 2,2,2-trifluoroacetic acid], the IC90 was 870 nM.
The same measure, in the same setting: then `Cn1c(-c2cn(-c3cc4[nH]cc(CCO)c4cn3)nc2C(F)(F)F)cnc1C(=O)Nc1ccc(C(=O)N2CCN(C(=O)[C@H]3CC[N@+](CC(=O)O)(CC4CNC4)CC3)CC2)c(Cl)c1` [Example 194, cis-2-[1-(azetidin-3-ylmethyl)-4-[4-[2-chloro-4-[[5-[1-[3-(2-hydroxyethyl)-1H-pyrrolo[3,2-c]pyridin-6-yl]-3-(trifluoromethyl)pyrazol-4-yl]-1-methyl-imidazole-2-carbonyl]amino]benzoyl]piperazine-1-carbonyl]piperidin-1-ium-1-yl]acetic acid. 1:1 2,2,2-trifluoroacetate], with 168 nM; and `Cn1c(-c2cn(-c3ccc(NCC4CC4(F)F)cn3)nc2C(F)(F)F)cnc1C(=O)Nc1ccc(C(=O)N2CCN(C(=O)C3CC[N+](CC(=O)O)(CC4CNC4)CC3)CC2)c(Cl)c1` (stereo not shown) [Example 6, 2-[1-(azetidin-3-ylmethyl)-4-[4-[2-chloro-4-[[5-[1-[5-[(2,2-difluorocyclopropyl)methylamino]-2-pyridyl]-3-(trifluoromethyl)pyrazol-4-yl]-1-methyl-imidazole-2-carbonyl]amino]benzoyl]piperazine-1-carbonyl]piperidin-1-ium-1-yl]acetic acid. 1:1 2,2,2-trifluoroacetate], with 690 nM.
On the same count and under the same terms, the same measure for `CNCCNc1ccc(-n2cc(-c3cnc(C(=O)Nc4ccc(C(=O)N5CCN(C(=O)C6CC[N+](CC(=O)O)(CC7CNC7)CC6)CC5)c(Cl)c4)n3C)c(C(F)(F)F)n2)nc1` (stereo not shown) [Example 4, 2-[1-(azetidin-3-ylmethyl)-4-[4-[2-chloro-4-[[1-methyl-5-[1-[5-[2-(methylamino)ethylamino]-2-pyridyl]-3-(trifluoromethyl)pyrazol-4-yl]imidazole-2-carbonyl]amino]benzoyl]piperazine-1-carbonyl]piperidin-1-ium-1-yl]acetic acid. 1:1 2,2,2-trifluoroacetate]: 390 nM; for `Cn1c(-c2cn(-c3ccc(N)cc3F)nc2C(F)(F)F)cnc1C(=O)Nc1ccc(C(=O)N2CCN(C(=O)CCC[N+](CCCCN)(CCCCN)CC(=O)O)CC2)c(Cl)c1` [Example 11, bis(4-aminobutyl)-[4-[4-[4-[[5-[1-(4-amino-2-fluoro-phenyl)-3-(trifluoromethyl)pyrazol-4-yl]-1-methyl-imidazole-2-carbonyl]amino]-2-chloro-benzoyl]piperazino]-4-keto-butyl]-(carboxymethyl)ammonium. 1:1 2,2,2-trifluoroacetic acid. 1:1 2,2,2-trifluoroacetate]: 170 nM.
`Cn1c(-c2cn(-c3cc4[nH]cc(C(=O)N5CCOCC5)c4cn3)nc2C(F)(F)F)cnc1C(=O)Nc1ccc(C(=O)N2CCN(C(=O)[C@H]3CC[N@+](CC(=O)O)(CC4CNC4)CC3)CC2)c(Cl)c1` [Example 177, cis-2-[1-(azetidin-3-ylmethyl)-4-[4-[2-chloro-4-[[1-methyl-5-[1-[3-(morpholine-4-carbonyl)-1H-pyrrolo[3,2-c]pyridin-6-yl]-3-(trifluoromethyl)pyrazol-4-yl]imidazole-2-carbonyl]amino]benzoyl]piperazine-1-carbonyl]piperidin-1-ium-1-yl]acetic acid. 1:1 2,2,2-trifluoroacetate]: the IC90 turned out to be 201 nM.
As for `CC(C)Nc1ccc(-n2cc(-c3cnc(C(=O)Nc4ccc(C(=O)N5CCN(C(=O)C6CC[N+](CC(=O)O)(CC7CNC7)CC6)CC5)c(Cl)c4)n3C)c(C(F)(F)F)n2)nc1` (stereo not shown) [Example 40, 2-[1-(azetidin-3-ylmethyl)-4-[4-[2-chloro-4-[[5-[1-[5-(isopropylamino)-2-pyridyl]-3-(trifluoromethyl)pyrazol-4-yl]-1-methyl-imidazole-2-carbonyl]amino]benzoyl]piperazine-1-carbonyl]piperidin-1-ium-1-yl]acetic acid. 1:1 formate], the 90% effect concentration (IC90) came to 430 nM.
Still for that read-out and setting: the same measure for `Cn1c(-c2cn(-c3cc4nn(CC(N)=O)cc4cn3)nc2C(F)(F)F)cnc1C(=O)Nc1ccc(C(=O)N2CCN(C(=O)[C@H]3CC[N@+](CC(=O)O)(CC4CNC4)CC3)CC2)c(Cl)c1` [Example 149, cis-2-[4-[4-[4-[[5-[1-[2-(2-amino-2-keto-ethyl)pyrazolo[4,3-c]pyridin-6-yl]-3-(trifluoromethyl)pyrazol-4-yl]-1-methyl-imidazole-2-carbonyl]amino]-2-chloro-benzoyl]piperazine-1-carbonyl]-1-(azetidin-3-ylmethyl)piperidin-1-ium-1-yl]acetic acid. 1:1 2,2,2-trifluoroacetate]: 744 nM.
Consider `CNc1ccc(-n2cc(-c3cnc(C(=O)Nc4ccc(C(=O)N5CCN(C(=O)C6CC[N+](CC(=O)O)(CC7CNC7)CC6)CC5)c(Cl)c4)n3C)c(C(F)(F)F)n2)cn1` (stereo not shown) [Example 68, 2-[1-(azetidin-3-ylmethyl)-4-[4-[2-chloro-4-[[1-methyl-5-[1-[6-(methylamino)-3-pyridyl]-3-(trifluoromethyl)pyrazol-4-yl]imidazole-2-carbonyl]amino]benzoyl]piperazine-1-carbonyl]piperidin-1-ium-1-yl]acetic acid. 1:1 2,2,2-trifluoroacetate], for which the IC90 was 760 nM.
Still for that read-out and setting: then `CN1CCN(c2ccc(-n3cc(-c4cnc(C(=O)Nc5ccc(C(=O)N6CCN(C(=O)C7CC[N+](CC(=O)O)(CC8CNC8)CC7)CC6)c(Cl)c5)n4C)c(C(F)(F)F)n3)nc2)CC1` (stereo not shown) [Example 53, 2-[1-(azetidin-3-ylmethyl)-4-[4-[2-chloro-4-[[1-methyl-5-[1-[5-(4-methylpiperazino)-2-pyridyl]-3-(trifluoromethyl)pyrazol-4-yl]imidazole-2-carbonyl]amino]benzoyl]piperazine-1-carbonyl]piperidin-1-ium-1-yl]acetic acid. 1:1 formate], with 550 nM; and `Cn1c(-c2cn(-c3ccc4[nH]c(CO)cc4n3)nc2C(F)(F)F)cnc1C(=O)Nc1ccc(C(=O)N2CCN(C(=O)[C@H]3CC[N@@+](CCCN)(CC(=O)O)CC3)CC2)c(Cl)c1` [Example 171, cis-2-[1-(3-aminopropyl)-4-[4-[2-chloro-4-[[1-methyl-5-[1-(2-methylol-1H-pyrrolo[3,2-b]pyridin-5-yl)-3-(trifluoromethyl)pyrazol-4-yl]imidazole-2-carbonyl]amino]benzoyl]piperazine-1-carbonyl]piperidin-1-ium-1-yl]acetic acid. 1:1 2,2,2-trifluoroacetate], with 281 nM.
Still for that read-out and setting: then `Cn1c(-c2cn(-c3cc4[nH]c(CO)cc4cn3)nc2C(F)(F)F)cnc1C(=O)Nc1ccc(C(=O)N2CCN(C(=O)[C@H]3CC[N@+](CC(=O)O)(CC4CNC4)CC3)CC2)c(Cl)c1` [Example 180, cis-2-[1-(azetidin-3-ylmethyl)-4-[4-[2-chloro-4-[[1-methyl-5-[1-(2-methylol-1H-pyrrolo[3,2-c]pyridin-6-yl)-3-(trifluoromethyl)pyrazol-4-yl]imidazole-2-carbonyl]amino]benzoyl]piperazine-1-carbonyl]piperidin-1-ium-1-yl]acetic acid. 1:1 2,2,2-trifluoroacetate], with 135 nM; and `Cn1c(-c2cn(-c3cc4[nH]cc(C(=O)N5CCC(F)(F)CC5)c4cn3)nc2C(F)(F)F)cnc1C(=O)Nc1ccc(C(=O)N2CCN(C(=O)[C@H]3CC[N@+](CC(=O)O)(CC4CNC4)CC3)CC2)c(Cl)c1` [Example 179, cis-2-[1-(azetidin-3-ylmethyl)-4-[4-[2-chloro-4-[[5-[1-[3-(4,4-difluoropiperidine-1-carbonyl)-1H-pyrrolo[3,2-c]pyridin-6-yl]-3-(trifluoromethyl)pyrazol-4-yl]-1-methyl-imidazole-2-carbonyl]amino]benzoyl]piperazine-1-carbonyl]piperidin-1-ium-1-yl]acetic acid. 1:1 2,2,2-trifluoroacetate], with 95.8 nM; and `C[C@H](N)CNc1ccc(-n2cc(-c3cnc(C(=O)Nc4ccc(C(=O)N5CCN(C(=O)C6CC[N+](CC(=O)O)(CC7CNC7)CC6)CC5)c(Cl)c4)n3C)c(C(F)(F)F)n2)nc1` (stereo partly drawn) [Example 19, 2-[4-[4-[4-[[5-[1-[5-[[(2S)-2-Aminopropyl]amino]-2-pyridyl]-3-(trifluoromethyl)pyrazol-4-yl]-1-methyl-imidazole-2-carbonyl]amino]-2-chloro-benzoyl]piperazine-1-carbonyl]-1-(azetidin-3-ylmethyl)piperidin-1-ium-1-yl]acetic Acid.1:1 formic Acid.1:1 formate], with 260 nM.
With `Cn1c(-c2cn(-c3ccc(N)cn3)nc2C(F)(F)F)cnc1C(=O)Nc1ccc(C(=O)N2CCN(C(=O)NCCCc3cc[n+](CC(=O)O)c(CCCN)c3)CC2)c(Cl)c1` [Example 70, 2-[2-(3-Aminopropyl)-4-[3-[[4-[4-[[5-[1-(5-amino-2-pyridyl)-3-(trifluoromethyl)pyrazol-4-yl]-1-methyl-imidazole-2-carbonyl]amino]-2-chloro-benzoyl]piperazine-1-carbonyl]amino]propyl]pyridin-1-ium-1-yl]acetic Acid.1:1 2,2,2-trifluoroacetic Acid.1:1 2,2,2-trifluoroacetate], the concentration for an effect of 90% (IC90) worked out at 850 nM.
